The values below come from US20060135483A1, “Oxygen/nitrogen heterocycle inhibitors of tyrosine phosphatases” (priority 2004, published 2006).

The term IC50 denotes the concentration at which inhibition is half-maximal.

The first assay addresses T1, PTP-1B (Homo sapiens, UniProt P18031).
T1 construct: PTP-1B (purified, 1 mg/mL) as a 1:250 dilution
T1 sequence (P18031 1-321 limits assumed): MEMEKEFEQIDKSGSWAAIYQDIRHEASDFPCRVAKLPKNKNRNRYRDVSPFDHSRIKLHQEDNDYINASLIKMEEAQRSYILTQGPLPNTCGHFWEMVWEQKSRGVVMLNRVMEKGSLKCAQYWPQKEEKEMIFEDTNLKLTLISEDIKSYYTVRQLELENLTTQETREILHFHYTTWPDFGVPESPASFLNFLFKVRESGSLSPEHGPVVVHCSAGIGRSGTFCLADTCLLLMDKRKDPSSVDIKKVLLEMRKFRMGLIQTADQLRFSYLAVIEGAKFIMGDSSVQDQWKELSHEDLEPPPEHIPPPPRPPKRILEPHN
Nature of the assay: pNPP assay for tyrosine phosphatase inhibitory activity. The conditions noted are these: Table 1; pNPP substrate 10 mM, 30° C., 10 minutes, absorbance at 405 nm. It counts as biochemical. The procedure: The compounds provided herein are evaluated for biological activity as inhibitors of PTP-1B using, for example, a pNPP assay. Such an assay can be used to screen compounds for tyrosine phosphatase inhibitory activity as shown in Example 39.
A 5× stock of pNPP (p-nitrophenol phosphate) substrate is prepared as 50 mM pNPP in assay buffer. Various tyrosine phosphatase solutions can be prepared as follows: • PTP-1B (purified, 1 mg/mL) as a 1:250 dilution (to a final concentration of 4:g/mL); • TC-PTP (NEB, 1000 units in 100:L) as a 1:50 dilution (to a final concentration of 2 U/10:L (4:g/mL)); • CD45 (Calbiochem, 20:g, 400 units in 100: L) as a 1 :50 dilution (to a final concentration of 0.8 U/10:L (4:g/mL)); • LAR (NEB, 1000 units in 200:L) as a 1:75 dilution (to a final concentration of 0.7 U/10:L (4:g/mL)); and • PTP-β (UBI, #14-350, 10,000 units, 40:g/571:L) as a 1:17.5 dilution (to a final concentration of 10 U/10:L (4:g/mL));
The compound to be tested is prepared as 1:16.7 and 1:50 dilutions from stock in a total volume of 1 00:M DMSO to give final concentrations of 626 and 200:M. The reaction mixtures are prepared in a 96-well microtiter plate (on ice) as 55:L assay buffer, 5:L of the diluted compound (to a final concentration of 31.3 and 10:M), 20:L of the pNPP substrate solution (to a final concentration of 10 mM) and 20:L PTPase in assay buffer. The reactants are mixed well, the plate placed in a water bath at 30° C. and incubated for 10 minutes. The reaction is then terminated by adding 1 OO:L of 2M K2CO3 per well, and the absorbance is measured at 405 nm by conventional means.
Unless otherwise indicated, this assay was used to determine activity for the selected compounds whose activity is recorded in Table 1 and Table 2.
`O=C(O)c1ccc(CN(Cc2ccc(C(F)(F)P(=O)(O)O)cc2)c2nnc(-c3cccc(Oc4ccccc4)c3)o2)cc1` [4-({[4-(Difluoro-phosphono-methyl)-benzyl]-[5-(3-phenoxy-phenyl)-[1,3,4]oxadiazol-2-yl]-amino}-methyl)-benzoic acid] gave a half-inhibitory concentration (IC50) of 1 to 10 µM.
In the case of `COC(=O)c1ccc(CN(Cc2ccc(C(F)(F)P(=O)(O)O)cc2)c2nnc(-c3cccc(Oc4ccccc4)c3)o2)cc1` [4-({[4-(Difluoro-phosphono-methyl)-benzyl]-[5-(3-phenoxy-phenyl)-[1,3,4]oxadiazol-2-yl]-amino}-methyl)-benzoic acid methyl ester], the half-maximal inhibitory concentration (IC50) lay within 10 to 100 µM.
For the compound `O=C(O)c1ccc(CN(c2ccc(Cl)c(Cl)c2)c2nnc(-c3cccc(Oc4cccc(C(=O)O)c4)c3)o2)cc1` [Example 21], the IC50 was 10 to 100 µM.
Still for that read-out and setting: in the case of `COC(=O)c1ccccc1-c1cccc(-c2cnc(N(Cc3ccc(C(F)(F)P(=O)(O)O)c(Br)c3)c3ccc(Cl)c(Cl)c3)o2)c1` [Example 19, 3′-{2-[[3-Bromo-4-(difluoro-phosphono-methyl)-benzyl]-(3,4-dichloro-phenyl)-amino]-oxazol-5-yl}-biphenyl-2-carboxylic acid methyl ester] it was 1 to 10 µM; in that of `COC(=O)C(Oc1cccc(-c2cnc(N(Cc3ccc(C(F)(F)P(=O)(O)O)c(Br)c3)c3ccc(Cl)c(Cl)c3)o2)c1)c1ccccc1` (stereo not shown) [Example 13, (3-{2-[[3-Bromo-4-(difluoro-phosphono-methyl)-benzyl]-(3,4-dichloro-phenyl)-amino]-oxazol-5-yl}-phenoxy)-phenyl-acetic acid methyl ester], 1 to 10 µM; in that of `COP(=O)(O)C(F)(F)c1ccc(CN(c2ccc(Cl)c(Cl)c2)c2ncc(-c3ccc(S(C)(=O)=O)cc3)o2)cc1Br` [{[2-Bromo-4-({(3,4-dichloro-phenyl)-[5-(4-methanesulfonyl-phenyl)-oxazol-2-yl]-amino}-methyl)-phenyl]-difluoro-methyl]-phosphonic acid monomethyl ester], 10 to 100 µM.
Still for that read-out and setting: the figure for `CCOP(=O)(OCC)C(F)(F)c1ccc(CN(c2ccc(Cl)c(Cl)c2)c2ncc(-c3ccc(S(C)(=O)=O)cc3)o2)cc1Br` [Example 8, {[2-Bromo-4-({(3,4-dichloro-phenyl)-[5-(4-methanesulfonyl-phenyl)-oxazol-2-yl]-amino}-methyl)-phenyl]-difluoro-methyl}-phosphonic acid diethyl ester] is 10 to 100 µM.
On the same count and under the same terms, in the case of `COC(=O)c1ccc(Oc2ccc(-c3cnc(N(Cc4ccc(C(F)(F)P(=O)(O)O)c(Br)c4)c4ccc(Cl)c(Cl)c4)o3)cc2)cc1` [Example 10, 4-(4-{2-[[3-Bromo-4-(difluoro-phosphono-methyl)-benzyl]-(3,4-dichloro-phenyl)-amino]-oxazol-5-yl}-phenoxy)-benzoic acid methyl ester] it was 1 to 10 µM; in that of `COC(=O)c1cccc(Oc2cccc(-c3nnc(N(Cc4ccc(C(F)(F)P(=O)(O)O)cc4)c4ccc(Cl)c(Cl)c4)o3)c2)c1` [Example 22, 3-[3-(5-{(3,4-Dichloro-phenyl)-[4-(difluoro-phosphono-methyl)-benzyl]-amino}-[1,3,4]oxadiazol-2-yl)-phenoxy]-benzoic acid methyl ester], 1 to 10 µM.
In turn, `O=C(O)c1ccc(-c2cnc(N(Cc3ccc(C(F)(F)P(=O)(O)O)c(Br)c3)c3ccccc3)o2)cc1` [Example 5, 4-(2-{[3-Bromo-4-(difluoro-phosphono-methyl)-benzyl]-phenyl-amino}-oxazol-5-yl)-benzoic acid] showed an IC50 of 0.1 to 0.5 µM.
The same measure, in the same setting: in the case of `COC(=O)c1cccc(Oc2cccc(-c3nnc(N(Cc4ccc(C(F)(F)P(=O)(O)O)c(Br)c4)c4ccc(Cl)c(Cl)c4)o3)c2)c1` [Example 24, 3-(3-{5-[[3-Bromo-4-(difluoro-phosphono-methyl)-benzyl]-(3,4-dichloro-phenyl)-amino]-[1,3,4]oxadiazol-2-yl}-phenoxy)-benzoic acid methyl ester] it was 0.5 to 1 µM; in that of `CS(=O)(=O)c1ccc(-c2cnc(N(Cc3ccc(/C=C/C(=O)O)c(Br)c3)c3ccc(Cl)c(Cl)c3)o2)cc1` [3-[2-Bromo-4-({(3,4-dichloro-phenyl)-(5-(4-methanesulfonyl-phenyl)-oxazol-2-yl]-amino}-methyl)-phenyl]-acrylic acid], 10 to 100 µM.
On to `O=P(O)(O)C(F)(F)c1ccc(CN(c2ccc(Cl)c(Cl)c2)c2ncc(-c3ccccc3)o2)cc1Br` [Example 1, [(2-Bromo-4-{[(3,4-dichloro-phenyl)-(5-phenyl-oxazol-2-yl)-amino]-methyl}-phenyl)-difluoro-methyl]-phosphonic acid], for which the IC50 is 1 to 10 µM.
Still for that read-out and setting: in the case of `O=C(O)c1ccc(-c2cnc(N(Cc3ccc(C(F)(F)P(=O)(O)O)c(Br)c3)c3ccc(Cl)c(Cl)c3)o2)cc1` [Example 3, 4-{2-[[3-Bromo-4-(difluoro-phosphono-methyl)-benzyl]-(3,4-dichloro-phenyl)-amino]-oxazol-5-yl}-benzoic acid] it was less than 0.1 µM.
Still for that read-out and setting: the figure for `CCOP(=O)(O)C(F)(F)c1ccc(CN(c2ccc(Cl)c(Cl)c2)c2ncc(-c3ccc(S(C)(=O)=O)cc3)o2)cc1Br` [Example 9, {[2-Bromo-4-({(3,4-dichloro-phenyl)-[5-(4-methanesulfonyl-phenyl)-oxazol-2-yl]-amino}-methyl)-phenyl]-difluoro-methyl}-phosphonic acid monoethyl ester] is 10 to 100 µM; for `O=C(O)c1cccc(Oc2cccc(-c3nnc(N(Cc4ccc(C(F)(F)P(=O)(O)O)cc4)c4ccc(Cl)c(Cl)c4)o3)c2)c1` [Example 23, 3-[3-(5-{(3,4-Dichloro-phenyl)-[4-(difluoro-phosphono-methyl)-benzyl]-amino}-[1,3,4]oxadiazol-2-yl)-phenoxy]-benzoic acid] it is 1 to 10 µM.
Same read-out and setting: the figure for `O=C(O)c1cccc(Oc2cccc(-c3nnc(N(Cc4ccc(C(F)(F)P(=O)(O)O)c(Br)c4)c4ccc(Cl)c(Cl)c4)o3)c2)c1` [Example 25, 3-(3-{5-[[3-Bromo-4-(difluoro-phosphono-methyl)-benzyl]-(3,4-dichloro-phenyl)-amino]-[1,3,4]oxadiazol-2-yl}-phenoxy)-benzoic acid] is 0.1 to 0.5 µM.

The assay is the same for the next values; noted with them: Table 2; pNPP substrate 10 mM, 30° C., 10 minutes, absorbance at 405 nm.
`CC(C)OC(=O)OC(C)OP(=O)(O)C(F)(F)c1ccc(CN(c2ccc(Cl)c(Cl)c2)c2ncc(-c3ccc(S(C)(=O)=O)cc3)o2)cc1Br` (stereo not shown) [Example 33, {[2-Bromo-4-({(3,4-dichloro-phenyl)-[5-(4-methanesulfonyl-phenyl)-oxazol-2-yl]-amino}-methyl)-phenyl]-difluoro-methyl}-phosphonic acid mono-(1-isopropoxycarbonyloxy-ethyl) ester] yielded a half-maximal inhibitory concentration (IC50) of 10 to 100 µM.
Same read-out and setting: the figure for `CN(Cc1ccc(C(F)(F)P(=O)(O)O)c(Br)c1)c1ncc(-c2ccc(-c3ccccc3C(=O)O)cc2)o1` [Example 26, 4′-{2-[[3-Bromo-4-(difluoro-phosphono-methyl)-benzyl]-methyl-amino]-oxazol-5-yl}-biphenyl-2-carboxylic acid] is 0.5 to 1 µM; for `CC(C)(C)C(=O)OCOP(=O)(OCOC(=O)C(C)(C)C)C(F)(F)c1ccc(CN(c2ccc(F)cc2)c2ncc(-c3ccc(S(C)(=O)=O)cc3)o2)cc1Br` [Example 35, 2,2-Dimethyl-propionic acid {[2-bromo-4-({(4-fluoro-phenyl)-[5-(4-methanesulfonylphenyl)-oxazol-2-yl]-amino}-methyl)-phenyl]-difluoro-methyl}-(2,2-dimethyl-propionyloxymethoxy)-phosphinoyloxymethyl ester] it is 10 to 100 µM.
Same read-out and setting: in the case of `CS(=O)(=O)c1ccc(-c2cnc(N(Cc3ccc(C(F)(F)P(=O)(O)O)c(Br)c3)c3ccc(F)cc3)o2)cc1` [Example 32, {[2-Bromo-4-({(4-fluoro-phenyl)-[5-(4-methanesulfonyl-phenyl)-oxazol-2-yl]-amino}-methyl)-phenyl]-difluoro-methyl}-phosphonic acid] it was less than 0.1 µM.
Same read-out and setting: in the case of `CS(=O)(=O)c1ccc(CN(Cc2ccc(C(F)(F)P(=O)(O)O)c(Br)c2)c2ncc(-c3ccc(S(C)(=O)=O)cc3)o2)cc1` [{[2-Bromo-4-({(4-methanesulfonyl-benzyl)-[5-(4-methanesulfonyl-phenyl)-oxazol-2-yl]-amino}-methyl)-phenyl]-difluoro-methyl}-phosphonic acid] it was 0.5 to 1 µM.
